Molecules are shown by their SMILES. Counter-ions that a name gives are not always drawn.

The values that follow come from patent US20250221966A1, “RXFP1 AGONISTS” (BRISTOL-MYERS SQUIBB COMPANY, priority 2021, published 2025).

The target in one test is T1, human RXFP1 (Homo sapiens, UniProt Q9HBX9).
T1 construct: expressed in transfected cells
T1 sequence (Q9HBX9 1-757): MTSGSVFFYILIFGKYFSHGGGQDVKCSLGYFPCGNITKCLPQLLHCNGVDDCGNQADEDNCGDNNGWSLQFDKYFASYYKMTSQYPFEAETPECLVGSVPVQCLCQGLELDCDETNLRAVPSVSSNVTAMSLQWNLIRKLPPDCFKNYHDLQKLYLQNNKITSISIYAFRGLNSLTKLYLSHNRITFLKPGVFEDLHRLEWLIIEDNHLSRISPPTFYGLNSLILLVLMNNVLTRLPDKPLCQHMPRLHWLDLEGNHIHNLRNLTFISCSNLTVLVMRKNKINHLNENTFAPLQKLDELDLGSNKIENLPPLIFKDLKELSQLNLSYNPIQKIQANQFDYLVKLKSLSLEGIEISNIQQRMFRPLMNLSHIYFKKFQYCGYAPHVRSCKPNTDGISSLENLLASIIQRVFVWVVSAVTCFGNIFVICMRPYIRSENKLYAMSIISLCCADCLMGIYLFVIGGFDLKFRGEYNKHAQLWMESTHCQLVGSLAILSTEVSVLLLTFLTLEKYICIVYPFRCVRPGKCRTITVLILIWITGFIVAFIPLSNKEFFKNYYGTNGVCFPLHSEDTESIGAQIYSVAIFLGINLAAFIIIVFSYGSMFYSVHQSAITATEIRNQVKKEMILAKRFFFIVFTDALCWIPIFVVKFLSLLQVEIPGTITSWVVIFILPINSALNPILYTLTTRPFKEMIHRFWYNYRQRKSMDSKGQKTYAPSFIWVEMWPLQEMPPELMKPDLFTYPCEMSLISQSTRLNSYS
The test is described as follows: RXFP1 cAMP assay (hRXFP1 HEK293 cAMP assay, HTRF). It is filed as cell-based. To be noted: HEK293 cells stably expressing human RXFP1, 30 min at room temperature, read-out: cAMP hRXFP1 HEK293 Assay EC50. The method, boiled down: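 HEK293 cells stably expressing human RXFP1 (1500 cells/well) in HBSS/20 mM HEPES/0.05% BSA/0.5 mM IBMX. Compounds were tested at 0.010 nM–50 μM final (2% DMSO) for 30 min at room temperature. cAMP was measured by HTRF and values derived by 4-parameter logistic fit.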
For orientation: Cyclic AMP is a second messenger, typically raised through Gs and lowered through Gi signalling.
As a reminder, the EC50 is the concentration at which the effect is half-maximal. Regarding `COc1ccc(Br)cc1C(=O)N[C@@H]1C2CCC(/C2=C\c2ccccc2)[C@@H]1C(=O)Nc1ccc(F)c(C(F)(F)F)c1` (some centres unmarked) [Example 78], the concentration giving a half-maximal response (EC50) was 1.9 µM. Still for that read-out and setting: next, `COc1ccc(-c2ccc(C(=O)O)cc2)cc1C(=O)N[C@@H]1C2CCC(/C2=C/c2ccccc2)[C@@H]1C(=O)Nc1ccc(F)c(C(F)(F)F)c1` (some centres unmarked) [Example 79]: 0.011 µM; `CC(C)=C1C2CCC1[C@H](C(=O)Nc1ccc(F)c(C(F)(F)F)c1)[C@@H]2NC(=O)c1cc(-c2cc(C(=O)O)ccc2F)ccc1N(C)C` (some centres unmarked) [Example 107]: 0.18 µM. Same read-out and setting: in the case of `COc1ccc(-c2cc(-c3nnn[nH]3)ccc2F)cc1C(=O)N[C@@H]1C2CCC(C2=C(C)C)[C@@H]1C(=O)Nc1ccc(F)c(C(F)(F)F)c1` (some centres unmarked) [Example 108] it was 0.33 µM; in that of `CCOC(=O)c1coc(-c2ccc(OC)c(C(=O)N[C@@H]3C4CCC(C4=C(C)C)[C@@H]3C(=O)Nc3ccc(F)c(C(F)(F)F)c3)c2)n1` (some centres unmarked) [Example 110], 0.8 µM; in that of `COc1ccc(-c2nc(C(=O)O)co2)cc1C(=O)N[C@@H]1C2CCC(C2=C(C)C)[C@@H]1C(=O)Nc1ccc(F)c(C(F)(F)F)c1` (some centres unmarked) [Example 113], 1.8 µM. Take `COc1ccc(-c2cc(C(N)=O)ccc2F)cc1C(=O)N[C@@H]1C2CCC(C2=C(C)C)[C@@H]1C(=O)Nc1ccc(F)c(C(F)(F)F)c1` (some centres unmarked) [Example 121]: the EC50 came out at 0.016 µM. Regarding `COC(=O)N1CCN(c2ccc(OC)c(C(=O)NC3C4CCC(C4=Cc4ccccc4)C3C(=O)Nc3ccc(F)c(C(F)(F)F)c3)c2)CC1` (centres unmarked) [Example 125], the 50% effective concentration (EC50) came to 0.24 µM. On the same count and under the same terms, next, `COc1cc(F)c(F)cc1C(=O)N[C@@H]1C2CCC(/C2=C/c2ccccc2)[C@@H]1C(=O)Nc1cccc(S(=O)(=O)C(F)(F)F)c1` (some centres unmarked) [Example 127]: 0.049 µM; `CCO/N=C1\C2CCC1[C@H](C(=O)Nc1ccc(F)c(C(F)(F)F)c1)[C@@H]2NC(=O)c1cc(-c2cc(C(=O)O)ccc2F)ccc1OC` (some centres unmarked) [Example 130]: 0.44 µM; `COC(=O)N1CCC=C(c2ccc(OC)c(C(=O)N[C@@H]3C4CCC(C4=C(C)C)[C@@H]3C(=O)Nc3ccc(F)c(C(F)(F)F)c3)c2)C1` (some centres unmarked) [Example 134]: 1.4 µM. Still for that read-out and setting: in the case of `COc1ccc(N2CCCC(C(=O)O)C2)cc1C(=O)N[C@@H]1C2CCC(/C2=C/c2ccccc2)[C@@H]1C(=O)Nc1ccc(F)c(C(F)(F)F)c1` (some centres unmarked) [Example 136] it was 0.27 µM.

Take `COc1ccc(C2=CCCNC2)cc1C(=O)N[C@@H]1C2CCC(C2=C(C)C)[C@@H]1C(=O)Nc1ccc(F)c(C(F)(F)F)c1` (some centres unmarked) [Example 140]: the EC50 was found to be 0.7 µM. Still for that read-out and setting: in the case of `COc1ccc(-c2nn[nH]n2)cc1C(=O)N[C@@H]1C2CCC(C2=C(C)C)[C@@H]1C(=O)Nc1ccc(F)c(C(F)(F)F)c1` (some centres unmarked) [Example 144] it was 2.1 µM. With `COc1cc(F)c(F)cc1C(=O)NC1C2CCC(C2=Cc2ncco2)C1C(=O)Nc1ccc(F)c(C(F)(F)F)c1` (centres unmarked) [Example 145], the 50% effective concentration (EC50) turned out to be 1.3 µM. On the same count and under the same terms, next, `COc1cc(F)c(F)cc1C(=O)N[C@@H]1C2CCC([C@@H]1C(=O)Nc1ccc(F)c(C(F)(F)F)c1)C21OCCO1` (some centres unmarked) [Example 147]: 1.8 µM.

As to `COc1ccc(-c2cc(C(=O)NS(=O)(=O)c3ccccc3)ccc2F)cc1C(=O)N[C@@H]1C2CCC(C2=C(C)C)[C@@H]1C(=O)Nc1ccc(F)c(C(F)(F)F)c1` (some centres unmarked) [Example 150], the EC50 was 0.19 µM.

As to `CNC(=O)c1ccc(F)c(-c2ccc(OC)c(C(=O)N[C@@H]3C4CCC(/C4=C/C4CC4)[C@@H]3C(=O)Nc3ccc(F)c(C(F)(F)F)c3)c2)c1` (some centres unmarked) [Example 166], the EC50 was 0.011 µM. On the same count and under the same terms, in the case of `COC(=O)C(NC(C)=O)c1ccc(F)c(-c2ccc(OC)c(C(=O)N[C@@H]3C4CCC(/C4=C/C4CC4)[C@@H]3C(=O)Nc3ccc(F)c(C(F)(F)F)c3)c2)c1` (some centres unmarked) [Example 171] it was 0.005 µM; in that of `COc1ccc(-c2cc(C(CO)NC(C)=O)ccc2F)cc1C(=O)N[C@@H]1C2CCC(/C2=C/C2CC2)[C@@H]1C(=O)Nc1ccc(F)c(C(F)(F)F)c1` (some centres unmarked) [Example 172], 0.005 µM; in that of `COc1ccc(-c2cc(C(OC(=O)Nc3ccccc3)C(=O)O)ccc2F)cc1C(=O)N[C@@H]1C2CCC(/C2=C/C2CC2)[C@@H]1C(=O)Nc1ccc(F)c(C(F)(F)F)c1` (some centres unmarked) [Example 177], 0.005 µM. The same measure, in the same setting: in the case of `COc1ccc(-c2cc(C(OC(C)=O)C(=O)O)ccc2F)cc1C(=O)N[C@@H]1C2CCC(/C2=C/c2cnoc2)[C@@H]1C(=O)Nc1ccc(F)c(C(F)(F)F)c1` (some centres unmarked) [Example 178] it was 0.011 µM; in that of `COc1ccc(-c2cc(C(NC(C)=O)C(=O)O)ccc2F)cc1C(=O)N[C@@H]1C2CCC(/C2=C/C2CC2)[C@@H]1C(=O)Nc1ccc(F)c(C(F)(F)F)c1` (some centres unmarked) [Example 182], 0.005 µM; in that of `COc1ccc(-c2cc(C(=O)Nc3nnn[nH]3)ccc2F)cc1C(=O)N[C@@H]1C2CCC(/C2=C/c2cnoc2)[C@@H]1C(=O)Nc1ccc(F)c(C(F)(F)F)c1` (some centres unmarked) [Example 192], 0.135 µM. Still for that read-out and setting: next, `COCCOCCOc1ccc(-c2cc(C(=O)O)ccc2F)cc1C(=O)N[C@@H]1C2CCC(/C2=C/c2ccccc2)[C@@H]1C(=O)Nc1ccc(F)c(C(F)(F)F)c1` (some centres unmarked) [Example 199]: 0.128 µM; `COc1ccc(-c2cc(C(C)OC(=O)Nc3ccccc3)ccc2F)cc1C(=O)N[C@H]1[C@@H](C(=O)Nc2ccc(F)c(C(F)(F)F)c2)[C@H]2CC[C@@H]1/C2=C\C1CC1` (stereo partly drawn) [Example 222, 1-(3′-(((1R,2R,3S,4R,Z)-7-(cyclopropylmethylene)-3-((4-fluoro-3-(trifluoromethyl)phenyl)carbamoyl)bicyclo[2.2.1]heptan-2-yl)carbamoyl)-6-fluoro-4′-methoxy-[1,1′-biphenyl]-3-yl)ethyl phenylcarbamate]: 0.001 µM; `COc1ccc(-c2cc(C(OC(=O)Nc3ccccc3)C(F)F)ccc2F)cc1C(=O)N[C@H]1[C@@H](C(=O)Nc2ccc(F)c(C(F)(F)F)c2)[C@H]2CC[C@@H]1/C2=C\C1CC1` (stereo partly drawn) [Example 233, 1-(3′-(((1R,2R,3S,4R,Z)-7-(cyclopropylmethylene)-3-((4-fluoro-3-(trifluoromethyl)phenyl)carbamoyl)bicyclo[2.2.1]heptan-2-yl)carbamoyl)-6-fluoro-4′-methoxy-[1,1′-biphenyl]-3-yl)-2,2-difluoroethyl phenylcarbamate]: 0.002 µM. In the case of `COc1ccc(-c2cc(C(NC(=O)C3CCOCC3)C(=O)O)ccc2F)cc1C(=O)N[C@H]1[C@@H](C(=O)Nc2ccc(F)c(C(F)(F)F)c2)[C@H]2CC[C@@H]1/C2=C\C1CC1` (stereo partly drawn) [Example 238, 2-(3′-(((1R,2R,3S,4R,Z)-7-(cyclopropylmethylene)-3-((4-fluoro-3-(trifluoromethyl)phenyl)carbamoyl)bicyclo[2.2.1]heptan-2-yl)carbamoyl)-6-fluoro-4′-methoxy-[1,1′-biphenyl]-3-yl)-2-(tetrahydro-2H-pyran-4-carboxamido)acetic acid], the concentration giving a half-maximal response (EC50) was 0.001 µM. Still for that read-out and setting: next, `COc1ccc(-c2cc(C(O)C(F)(F)F)ccc2F)cc1C(=O)N[C@@H]1C2CCC(/C2=C/C2CC2)[C@@H]1C(=O)Nc1ccc(F)c(C(F)(F)F)c1` (some centres unmarked) [Example 245]: 0.003 µM. On the same count and under the same terms, in the case of `COc1ccc(-c2ccc(N3CCOCC3)c(C(=O)O)c2)cc1C(=O)N[C@H]1[C@@H](C(=O)Nc2ccc(F)c(C(F)(F)F)c2)[C@H]2CC[C@@H]1/C2=C\C1CC1` [Example 249, 3′-(((1R,2R,3S,4R,Z)-7-(cyclopropylmethylene)-3-((4-fluoro-3-(trifluoromethyl)phenyl)carbamoyl)bicyclo[2.2.1]heptan-2-yl)carbamoyl)-4′-methoxy-4-morpholino-[1,1′-biphenyl]-3-carboxylic acid, TFA] it was 0.005 µM; in that of `COc1ccc(-c2ccc(N3CCOCC3)c(C(=O)OC(C)(C)C)c2)cc1C(=O)N[C@H]1[C@@H](C(=O)Nc2ccc(F)c(C(F)(F)F)c2)[C@H]2CC[C@@H]1/C2=C\C1CC1` [Example 251, tert-butyl 3′-(((1R,2R,3S,4R,Z)-7-(cyclopropylmethylene)-3-((4-fluoro-3-(trifluoromethyl)phenyl)carbamoyl)bicyclo[2.2.1]heptan-2-yl)carbamoyl)-4′-methoxy-4-morpholino-[1,1′-biphenyl]-3-carboxylate], 0.036 µM.

The test is the same for the next values; noted with them: cAMP hRXFP1 HEK293 Assay EC50, HEK293 cells stably expressing human RXFP1, 30 min at room temperature.
Consider `CNC(=O)OC(C(=O)O)c1ccc(F)c(-c2ccc(OC)c(C(=O)N[C@@H]3C4CCC(/C4=C/C4CC4)[C@@H]3C(=O)Nc3ccc(F)c(C(F)(F)F)c3)c2)c1` (some centres unmarked) [Example 179], for which the half-maximal effective concentration (EC50) came to 0.005 µM.
